Entries after “also recorded” stand apart in the source; their conditions may differ. Where no end group is shown, it is not given here.
Key:
[1] = system: CD4+ and CD8+ T-cells and IgG autoantibodies; assay: Overlap of CD4+, CD8+ and IgG antibody responses (Venn analysis); assay type: cell-based, human; details: type 1 diabetes
From the text: FIG. 13. Venn diagrams of CD4^+, CD8^+ and antibody response to oxPTM-INSPs. Panels a, b, and c show the overlap between IgG autoantibody and T-cell (CD4^+ and CD8^+) responses specific to oxPTM-INSP-3 (a), Nt-INSP-4 (b) and oxPTM-INSP-6 (c). Panels d, e, and f display the overlap between T-cell responses to the three insulin peptides and IgG to oxPTM-INS modified by hydroxyl radical (^●OH-INS). […] There is concordance between reactivity to oxPTM-INS and CD4^+ and CD8^+ reactivity for all three tested peptides (7/17, 8/18 and 8/18 for oxPTM-INSP-3, Nt-INSP-4 and oxPTM-INSP-6, respectively). The stimulatory index >1 was used for definition of positive T-cell response.
Correlation between T-cell stimulation and antibody response. Subjects evaluated for T-cell stimulation were also tested for antibody reactivity to either oxPTM-INSPs or oxidised intact insulin (oxPTM-INS) to assess correlations between humoral and cellular responses (FIG. 11-e-f). In study cohort 2, antibody reactivity to oxPTM-INSP-6 was the highest as observed in the study cohort 1, with 11/18 (61.1%) binding to at least one oxPTM-INSP-6 derivatives (p<0.001 oxPTM-INSP-6 vs. Nt-INSP-6). Detailed analysis of autoantibody response in this cohort is described in the ESM (ESM results Antibody binding to oxPTM-INSPs in Study cohort 2).
We then analysed the extent of correlation between CD4^+, CD8^+ and IgG antibody responses. […] The CD4^+ T cell response to Nt-INSP-4 frequently overlapped with CD8^+ (13/18 [72.2%]), and to a lesser extent to antibodies (7/18 [38.8%]). […] CD4^+ response to oxPTM-INSP-6 was linked to both CD8^+ and/or antibodies: […] patients had concordant CD4^+ and CD8^+ responses, while 9/18 (50%) patients had concordant CD4^+ and antibody responses. […] CD4^+ T-cell stimulation to Nt-INSP-4, oxPTM-INSP-6 and oxPTM-INSP-3 was associated with antibody reactivity to oxPTM-INS in 8/18 (44.4%), 8/18 (44.4%) and 7/18 (38.9%) type 1 diabetes patients.

[2] = system: autoantibodies to oxPTM-INS; assay: Competitive displacement ELISA, plate coated with oxidised insulin; assay type: binding, human
Procedure: A competitive displacement assay was performed to map the exact epitope, namely the exact amino acid sequence binding specificities and to test the binding to native peptides versus oxidised insulin peptides. The binding to the peptide was done by direct ELISA on the native or modified peptides or by competition ELISA. Initially native synthetic peptide was oxidised by exposing to 0.05 mM CuCl2; 90 mM H2O2; 10 mM NaOCl. Native and modified peptides were fractionated by AKTA to evaluated changes in molecular profile. AKTA fractions were then tested by ELISA for reactivity (FIGS. 2 and 3). We next perform competition ELISA with the native peptides and peptides exposed to 0.05 mM CuCl2; 90 mM H2O2; 10 mM NaOCl. Serum samples were pre-incubated with either native insulin peptides or oxidised insulin peptides. Finally, based on the amino acid sequence of the identified peptides we predicted the amino acids that would be oxidised by ^●OH and HOCl and designed synthetic peptides that contain the oxidised amino acids in the synthesis. Synthetic peptides were produced by standard commercially available methods, specifically by Peptide Protein Research Ltd. Briefly, peptide synthesis was performed by automated solid phase peptide synthesis (SPPS), which was followed by purification. Each individual amino acid was added to the growing chain according to the sequence. Where specified, dihydroxyphenylalanine was added to replace Tyr or cysteate were added to replace Cys. Similarly, these peptides were tested by competition ELISA. The table below describe the different competition ELISA performed:
Serum samples from children with type 1 diabetes were pre-incubated with the synthetic peptides before they were added to the native insulin or oxidised that were previously coated on the ELISA plate. If the antibodies in the serum sample bind to the peptide they will no longer bind to the insulin or oxidised insulin on the plate-competition ELISA. 1:200 dilutions of serum samples from T1D serum samples were pre-incubated for 2 hr at room temperature with the various peptides as shown in the table above. After incubation, serum/peptide mix was added to the ELISA plate previously coated overnight with either native insulin or oxidised insulin for an additional 2 hr incubation. Plates were then washed in a plate washer three times with PBS 0.05% tween. After washing, 100 ul of anti-human IgG diluted 1:1000 in 1% milk-PBS 0.05% tween were added for additional 1 hour and 30 min incubation. After washing, ELISA was developed by adding 100 ul of TMB (10 mg/ml in DMSO) in 10 ml of 0.1 M sodium acetate plus 2 ul of H2O2. Reaction was stopped by adding 0.5 M H2SO4 (usually 20 min for insulin ELISA).
To assess the binding specificity of serum samples to identified peptides, a competitive ELISA was performed. The ELISA was carried out following the method described above, except that the serum samples were pre-incubated for 2 h with and without 10 μg/ml peptides as competitors, before adding the serum samples to the insulin coated ELISA plate.

CD8+ T-cells (PBMCs) = assay: In vitro peptide stimulation and T-cell proliferation assay, CD8+; assay type: cell-based, human
From the text: (§1) In vitro peptide stimulation and T-cell proliferation assay. Peripheral blood mononuclear cells (PBMCs) were freshly isolated from type 1 diabetes and healthy individuals using Ficoll-Hypaque density gradient centrifugation. PBMCs were labelled with the fluorescent dye CellTrace Violet (Invitrogen, Thermo Fisher Scientific) and cultured (2×10^5 cells/well) in round-bottom 96-well plates (Falcon, Becton Dickinson) with RPMI-1640 medium (Gibco, Thermo Fisher Scientific) supplemented with 5% autologous plasma in the presence or not of insulin peptides (20 μg/ml); PPD (10 μg/ml) and anti-CD3 (0.1 μg/ml; clone OKT3) were used as positive control. Two scrambled peptides: […] (SEQ ID NO: 17), […] (SEQ ID NO: 18), and the Exendin 9-39 fragment were used as negative controls. After 7 days, PBMCs were stained with PE-Cy7 anti-CD8 (clone RPA-T8, BD Pharmingen) and FITC anti-CD3 (clone UCHT1, BD Pharmingen). Samples were analysed by using a FACSCanto II (BD Bioscience) to evaluate T-cell proliferation measured as CellTrace Violet dilution. Cytofluorimetric analyses were performed using FlowJo Software (FlowJo, LLC). The results were given as stimulation index (SI), calculated as percentage of stimulated T-cell subset proliferation/percentage of unstimulated T-cell subset proliferation. Assay for detection of peptide specific T cells subsets was done as previously described (detailed in ESM methods, Assay for detection of peptide specific T cells)
(§2) T-cell stimulation with oxPTM-INSPs. To evaluate the immune cell response against the oxPTM-INSPs, we performed CD4+ and CD8+ T cells proliferation experiments using freshly isolated PBMCs (Study cohort 2, Table 1). Response was calculated as stimulatory index (SI) over unstimulated T-cells.

CD4+ T-cells (PBMCs) = assay: In vitro peptide stimulation and T-cell proliferation assay, CD4+; assay type: cell-based, human; details: Type 1 diabetes (N = 18)
From the text: as §1, §2

reduced binding to oxidised whole insulin ([2]; type 1 diabetes sera pre-incubated with peptide): 35-75%
Substance: oxPTM-INSP-6: oxidised forms of insulin peptide 6 (B:21-30), in house oxidised or in silico derivatives (ERGFFYTPKT; not fully specified (N-terminus); also: oxidised forms, in house oxidised or in silico derivatives, modified residues not defined)
concordance between reactivity to oxPTM-INS and CD4+ and CD8+ reactivity (patients/patients) ([1]; Study cohort 2): 8/18 | patients with CD4+ T-cell stimulation associated with antibody reactivity to oxPTM-INS ([1]; Study cohort 2): 44.4% | patients with CD4+, CD8+ T-cells to the peptide and autoantibodies to oxPTM-INS simultaneously ([1]; Study cohort 2): 33.3% | patients with concordant CD4+ and antibody responses to the peptide ([1]; Study cohort 2): 50% | patients with concordant CD4+, CD8+ and IgG antibody response to the peptide ([1]; Study cohort 2): 44.4% | patients with overlapping (concordant) CD4+ and CD8+ responses to the peptide ([1]; Study cohort 2, SI >1): 72.2% | inhibition of type 1 diabetes serum binding to oxPTM-INS (in words) ([2]; sera pre-incubated with peptide competitor): strongly inhibited binding to oxPTM-INS; also recorded: able to inhibit the binding | CD8+ T-cell response, subjects with SI > 1 (%) (CD8+ T-cells (PBMCs); Controls (N = 11)): 27.3% | CD8+ T-cell response, subjects with SI > 1 (%) (CD8+ T-cells (PBMCs); Type 1 diabetes (N = 18)): 72.2% | CD4+ T-cell response, subjects with SI > 3 (%) (CD4+ T-cells (PBMCs)): 66.7%

— patent US20260072027A1, “Peptides And Method” (Queen Mary University of London, priority 2022, published 2026)
